# Source: patent publication US12054480B2, “Compounds for treating cannabinoid toxicity and acute cannabinoid overdose” (MAKScientific, LLC, priority 2020, dated 2024)
# Columns and labels:
# [1] = cited from earlier work
# male CD-1 mice [2] = assay: Observation chamber test - CB1 antagonist mediated side effects; assay type: in vivo, mouse; details: FIG. 1; i.v., 60-minute observation; compared with rimonabant (i.p.)
# Experimental: Observation chambers were used to score (count/duration) individual mouse intrinsic behavior. Male CD-1 mice (n=8) were placed in the chambers for 30 minutes to acclimate to the environment. Subjects were dosed i.v with a compound of Formula I-XI along with vehicle control groups and behavior are recorded over a 60-minute period and the results were analyzed. For statistical analysis, measurements were sampled in 5 min bins at the 5-10, 15-20, 25-30, 35-40, 45-50 and 55-60 min time intervals. The scratching response/frequency is defined based on well-established observations. Data was compared with that of rimonabant (i.p). The vehicle control group (vehicle (i.v.)) were included accordingly.
# male CD-1 mice [3] = assay: Reversal of CB1 SPC agonist induced neurotoxicity; assay type: in vivo, mouse; details: FIGS. 2A-2B; induced by suprapharmacological doses of CB1 SPC agonist AM2201; i.v., 30 min observation
smiles,measurement,setting,value
CCCCCc1cc(O)c2c(c1)OC(C)(C)[C@@H]1CCC(C)=C[C@@H]21 [THC],onset,[1]; humans,30 to 60 min
same,time of peak effects,[1]; humans,2 to 4 h
same,apparent plasma elimination half-life,[1]; in some cases,> 96 h
"CCOC(=O)c1ccc(-c2c(CC)c(C(=O)NN3CCCCC3)nn2-c2ccc(Cl)cc2Cl)cc1 [Compound 1, Ethyl 4-(1-(2,4-Dichlorophenyl)-4-Ethyl-3-(Piperidin-1-Ylcarbamoyl)-1H-Pyrazol-5-Yl)Benzoate]",side effects (scratching episodes),male CD-1 mice [2],lesser side effects (scratching episodes) as compared to rimonabant
same,neurotoxic effects: convulsions,male CD-1 mice [3],blocks
same,neurotoxic effects: tremors,male CD-1 mice [3],blocks
